Test results taken from patent US8137718B2, “Probiotic infant products” (Mead Johnson Nutrition Company, priority 2008, dated 2012).

test system: B. longum AH1205; assay: Minimum inhibitory concentration (MIC) of antibiotics for the B. longum strain; assay type: cell-based, Bifidobacterium longum; conditions: against the B. longum strain AH1205
Protocol: Antibiotic sensitivity profiles of the B. longum strain were determined using the “disc susceptibility” assay. Cultures were grown in the appropriate broth medium for 24-48 hours, spread-plated (100 μl) onto agar media, and discs containing known concentrations of the antibiotics were placed onto the agar. Strains were examined for antibiotic sensitivity after 1-2 days incubation at 37° C. under anaerobic conditions. Strains were considered sensitive if zones of inhibition of 1 mm or greater were seen. The minimum inhibitory concentration (MIC) for each antibiotic was independently assessed.

| SMILES | minimum inhibitory concentration (MIC) |
| --- | --- |
| CCC[C@@H]1C[C@@H](C(=O)N[C@@H]([C@H]2O[C@H](SC)[C@H](O)[C@@H](O)[C@H]2O)[C@H](C)Cl)N(C)C1 [clindamycin] | 0.032 |
| Cc1ncc([N+](=O)[O-])n1CCO [metronidazole] | > 256 |
| CN[C@H](CC(C)C)C(=O)N[C@H]1C(=O)N[C@@H](CC(N)=O)C(=O)N[C@H]2C(=O)N[C@H]3C(=O)N[C@H](C(=O)N[C@H](C(=O)O)c4cc(O)cc(O)c4-c4cc3ccc4O)[C@H](O)c3ccc(c(Cl)c3)Oc3cc2cc(c3O[C@@H]2O[C@H](CO)[C@@H](O)[C@H](O)[C@H]2O[C@H]2C[C@](C)(N)[C@H](O)[C@H](C)O2)Oc2ccc(cc2Cl)[C@H]1O [vancomycin] | 0.75 |
